The target of assay [1] is EGFR (human) (UniProt P00533). The conditions noted are these: a2780.
The next assay has as its target EGFR (UniProt P00533).
Assay [2] concerns the target EGFR (human) (UniProt P00533). The conditions noted are these: a431.
Assay [3] deals with EGFR (human) (UniProt P00533). The conditions noted are these: mda435.
The target of assay [4] is EGFR (human) (UniProt P00533). The conditions noted are these: a2780ddp.
Assay [5] addresses EGFR (human) (UniProt P00533). The conditions noted are these: 3t3.
Assay [6] addresses EGFR (human) (UniProt P00533). The conditions noted are these: sk-br-3.

In brackets after ≈: the same amount, converted by molar mass.

Chain of EGFR (human) (P00533 whole entry, looked up): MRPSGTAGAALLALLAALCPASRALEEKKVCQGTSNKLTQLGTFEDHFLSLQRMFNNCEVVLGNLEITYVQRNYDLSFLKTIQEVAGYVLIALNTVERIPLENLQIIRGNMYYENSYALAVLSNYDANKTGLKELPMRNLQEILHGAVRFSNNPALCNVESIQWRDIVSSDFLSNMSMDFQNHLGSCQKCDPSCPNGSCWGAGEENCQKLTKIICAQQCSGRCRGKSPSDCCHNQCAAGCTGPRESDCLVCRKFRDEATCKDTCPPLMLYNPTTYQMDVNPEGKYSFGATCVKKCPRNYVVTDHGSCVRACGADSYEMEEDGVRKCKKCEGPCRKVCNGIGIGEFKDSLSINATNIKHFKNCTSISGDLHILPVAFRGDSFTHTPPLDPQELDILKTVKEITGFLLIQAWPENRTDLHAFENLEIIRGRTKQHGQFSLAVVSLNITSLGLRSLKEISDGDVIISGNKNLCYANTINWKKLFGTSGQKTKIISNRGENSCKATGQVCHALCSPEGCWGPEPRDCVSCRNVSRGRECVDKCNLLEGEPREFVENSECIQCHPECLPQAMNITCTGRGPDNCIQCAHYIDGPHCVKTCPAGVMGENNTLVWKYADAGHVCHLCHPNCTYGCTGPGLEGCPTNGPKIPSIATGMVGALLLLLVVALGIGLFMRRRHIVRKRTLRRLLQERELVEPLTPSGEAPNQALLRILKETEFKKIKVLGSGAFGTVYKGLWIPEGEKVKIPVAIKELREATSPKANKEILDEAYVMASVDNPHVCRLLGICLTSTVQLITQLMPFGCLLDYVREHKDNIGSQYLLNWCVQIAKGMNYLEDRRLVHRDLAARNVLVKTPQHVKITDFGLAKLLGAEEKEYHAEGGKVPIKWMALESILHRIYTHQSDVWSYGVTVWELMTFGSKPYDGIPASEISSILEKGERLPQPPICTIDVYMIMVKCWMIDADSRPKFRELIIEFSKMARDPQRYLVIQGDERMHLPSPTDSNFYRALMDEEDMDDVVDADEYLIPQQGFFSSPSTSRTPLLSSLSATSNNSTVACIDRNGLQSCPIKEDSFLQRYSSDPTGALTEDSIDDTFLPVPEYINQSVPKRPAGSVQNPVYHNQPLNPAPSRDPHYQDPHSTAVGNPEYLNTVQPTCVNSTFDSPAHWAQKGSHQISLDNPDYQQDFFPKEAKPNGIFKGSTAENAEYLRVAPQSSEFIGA
Chain of EGFR (P00533 whole entry, looked up): as above

At EGFR (human) [1], `CC#CC(=O)Nc1cc2c(Nc3cccc(Br)c3)c(C#N)cnc2cn1` yielded an IC50 of 0.06 µg/mL (≈ 0.148 µM).

Consider `CN(C)C/C=C/C(=O)Nc1cnc2ncc(C#N)c(Nc3cccc(Br)c3)c2c1`, for which the IC50 on EGFR is 800 nM.

As for `CCOc1ccc2ncc(C#N)c(Nc3cccc(Br)c3)c2n1`, the half-maximal inhibitory concentration (IC50) at EGFR was > 10000 nM.

As to `CNc1cc2c(Nc3cccc(Br)c3)c(C#N)cnc2cn1`, the IC50 against EGFR (human) [2] lay in the range of 0.209 to 0.31 µg/mL (≈ 0.59 to 0.875 µM); on EGFR (human) [1], 0.74 to 2.36 µg/mL (≈ 2.09 to 6.67 µM); against EGFR (human) [3] it was 0.98 to 3.94 µg/mL (≈ 2.77 to 11.1 µM); on EGFR (human) [4], 0.43 to 2.25 µg/mL (≈ 1.21 to 6.34 µM).

`CN(C)C/C=C/C(=O)Nc1cc2c(Nc3cccc(Br)c3)c(C#N)cnc2cn1` yielded an IC50 against EGFR (human) [5] of 0.272 to 0.373 µg/mL (≈ 0.602 to 0.826 µM).

For `N#Cc1cnc2cnc(NCCN3CCOCC3)cc2c1Nc1cccc(Br)c1`, the IC50 is 0.8 µg/mL (≈ 1.76 µM) against EGFR (human) [4] and 0.4 µg/mL (≈ 0.882 µM) on EGFR (human) [6].

With `COc1ccc(CNc2cc3c(Nc4cccc(Br)c4)c(C#N)cnc3cn2)cc1`, at EGFR, the IC50 was > 100 nM.

The values above are taken from the Kinase Knowledgebase extract (Sharma et al. 2016).
